In the supplement of paper PMC8612539:
Values after ≈ are worked out from the molar mass of the structure shown.

System: Escherichia coli
Test: minimum inhibitory concentration (MIC)
Procedure: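 Broth microdilution MIC (Sensititre BOPO7F bovine plate, CLSI methods) of 19 antimicrobials against field isolates of P. multocida, M. haemolytica, H. somni (deep nasopharyngeal swabs) and E. coli, Enterococcus spp. (rectal swabs) from weaned dairy heifers. Incubation 16-24 h at 35 C. MIC is the lowest concentration preventing visible growth. Values with <= or > lie at the tested range limits. Trimethoprim-sulfamethoxazole is given as the trimethoprim component of a 1:19 mixture.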

CCN1CCN(c2cc3c(cc2F)c(=O)c(C(=O)O)cn3C2CC2)CC1 [Enrofloxacin]
Settings | minimum inhibitory concentration [µg/mL]
isolate (source animal id): 8 | ≤ 0.12
isolate (source animal id): 9 | > 2
isolate (source animal id): 10 | ≤ 0.12
isolate (source animal id): 11 | ≤ 0.12
isolate (source animal id): 12 | > 2
isolate (source animal id): 13 | ≤ 0.12
isolate (source animal id): 14 | 0.5 (≈ 1.39 µM)
isolate (source animal id): 15 | ≤ 0.12
isolate (source animal id): 16 | ≤ 0.12
isolate (source animal id): 98 | ≤ 0.12
isolate (source animal id): 99 | ≤ 0.12
isolate (source animal id): 100 | ≤ 0.12
isolate (source animal id): 101 | ≤ 0.12
isolate (source animal id): 102 | ≤ 0.12
isolate (source animal id): 103 | ≤ 0.12
isolate (source animal id): 104 | ≤ 0.12
isolate (source animal id): 105 | ≤ 0.12
isolate (source animal id): 106 | > 2
isolate (source animal id): 107 | ≤ 0.12
isolate (source animal id): 108 | ≤ 0.12
isolate (source animal id): 109 | ≤ 0.12
isolate (source animal id): 110 | ≤ 0.12
isolate (source animal id): 111 | > 2
isolate (source animal id): 112 | ≤ 0.12
isolate (source animal id): 113 | 1 (≈ 2.78 µM)
isolate (source animal id): 114 | ≤ 0.12
isolate (source animal id): 115 | 1 (≈ 2.78 µM)
isolate (source animal id): 116 | 1 (≈ 2.78 µM)
isolate (source animal id): 117 | ≤ 0.12
isolate (source animal id): 118 | 0.5 (≈ 1.39 µM)
isolate (source animal id): 119 | > 2
isolate (source animal id): 120 | 1 (≈ 2.78 µM)
isolate (source animal id): 121 | ≤ 0.12
isolate (source animal id): 122 | ≤ 0.12
isolate (source animal id): 123 | ≤ 0.12
isolate (source animal id): 124 | > 2
isolate (source animal id): 125 | ≤ 0.12
isolate (source animal id): 126 | > 2
isolate (source animal id): 127 | ≤ 0.12
isolate (source animal id): 128 | ≤ 0.12
isolate (source animal id): 129 | 1 (≈ 2.78 µM)
isolate (source animal id): 130 | ≤ 0.12
isolate (source animal id): 131 | 2 (≈ 5.56 µM)
isolate (source animal id): 132 | 0.5 (≈ 1.39 µM)
isolate (source animal id): 133 | ≤ 0.12
isolate (source animal id): 134 | ≤ 0.12
isolate (source animal id): 135 | ≤ 0.12
isolate (source animal id): 136 | ≤ 0.12
isolate (source animal id): 137 | 0.5 (≈ 1.39 µM)
isolate (source animal id): 138 | > 2
isolate (source animal id): 139 | 0.25 (≈ 0.696 µM)
isolate (source animal id): 140 | ≤ 0.12
isolate (source animal id): 141 | ≤ 0.12
isolate (source animal id): 142 | ≤ 0.12
isolate (source animal id): 143 | 1 (≈ 2.78 µM)
isolate (source animal id): 144 | > 2
isolate (source animal id): 145 | ≤ 0.12
isolate (source animal id): 146 | 0.5 (≈ 1.39 µM)
isolate (source animal id): 147 | > 2
isolate (source animal id): 148 | 0.25 (≈ 0.696 µM)
isolate (source animal id): 149 | ≤ 0.12
isolate (source animal id): 150 | ≤ 0.12
isolate (source animal id): 151 | ≤ 0.12
isolate (source animal id): 152 | ≤ 0.12
isolate (source animal id): 153 | ≤ 0.12
isolate (source animal id): 154 | 0.5 (≈ 1.39 µM)
isolate (source animal id): 155 | ≤ 0.12
isolate (source animal id): 156 | 1 (≈ 2.78 µM)
isolate (source animal id): 157 | ≤ 0.12
isolate (source animal id): 158 | ≤ 0.12
isolate (source animal id): 159 | ≤ 0.12
isolate (source animal id): 160 | ≤ 0.12
isolate (source animal id): 161 | ≤ 0.12
isolate (source animal id): 162 | > 2
isolate (source animal id): 163 | ≤ 0.12
isolate (source animal id): 164 | ≤ 0.12
isolate (source animal id): 165 | ≤ 0.12
isolate (source animal id): 166 | ≤ 0.12
isolate (source animal id): 167 | ≤ 0.12
isolate (source animal id): 168 | ≤ 0.12
isolate (source animal id): 169 | ≤ 0.12
isolate (source animal id): 170 | ≤ 0.12
isolate (source animal id): 171 | ≤ 0.12
isolate (source animal id): 172 | ≤ 0.12
isolate (source animal id): 173 | ≤ 0.12
isolate (source animal id): 174 | ≤ 0.12
isolate (source animal id): 175 | ≤ 0.12
isolate (source animal id): 176 | ≤ 0.12
isolate (source animal id): 177 | ≤ 0.12
isolate (source animal id): 178 | ≤ 0.12
isolate (source animal id): 179 | ≤ 0.12
isolate (source animal id): 180 | ≤ 0.12
isolate (source animal id): 181 | ≤ 0.12
isolate (source animal id): 182 | ≤ 0.12
isolate (source animal id): 183 | ≤ 0.12
isolate (source animal id): 184 | ≤ 0.12
isolate (source animal id): 185 | ≤ 0.12
isolate (source animal id): 186 | ≤ 0.12
isolate (source animal id): 187 | ≤ 0.12
isolate (source animal id): 188 | 2 (≈ 5.56 µM)

CC[C@H]1OC(=O)C[C@@H](O)[C@H](C)[C@@H](O[C@@H]2O[C@H](C)[C@@H](O)[C@H](N(C)C)[C@H]2O)[C@@H](CCN2CCCCC2)C[C@@H](C)C(=O)/C=C/C(C)=C/[C@@H]1CN1CCCCC1 [Tildipirosin]
Settings | minimum inhibitory concentration [µg/mL]
isolate (source animal id): 8 | 4 (≈ 5.45 µM)
isolate (source animal id): 9 | 16 (≈ 21.8 µM)
isolate (source animal id): 10 | 8 (≈ 10.9 µM)
isolate (source animal id): 11 | 4 (≈ 5.45 µM)
isolate (source animal id): 12 | 4 (≈ 5.45 µM)
isolate (source animal id): 13 | 4 (≈ 5.45 µM)
isolate (source animal id): 14 | 4 (≈ 5.45 µM)
isolate (source animal id): 15 | 4 (≈ 5.45 µM)
isolate (source animal id): 16 | 4 (≈ 5.45 µM)
isolate (source animal id): 98 | 4 (≈ 5.45 µM)
isolate (source animal id): 99 | 4 (≈ 5.45 µM)
isolate (source animal id): 100 | 2 (≈ 2.72 µM)
isolate (source animal id): 101 | 4 (≈ 5.45 µM)
isolate (source animal id): 102 | 4 (≈ 5.45 µM)
isolate (source animal id): 103 | 4 (≈ 5.45 µM)
isolate (source animal id): 104 | 4 (≈ 5.45 µM)
isolate (source animal id): 105 | 4 (≈ 5.45 µM)
isolate (source animal id): 106 | 16 (≈ 21.8 µM)
isolate (source animal id): 107 | 8 (≈ 10.9 µM)
isolate (source animal id): 108 | 4 (≈ 5.45 µM)
isolate (source animal id): 109 | 4 (≈ 5.45 µM)
isolate (source animal id): 110 | 4 (≈ 5.45 µM)
isolate (source animal id): 111 | 4 (≈ 5.45 µM)
isolate (source animal id): 112 | 4 (≈ 5.45 µM)
isolate (source animal id): 113 | 4 (≈ 5.45 µM)
isolate (source animal id): 114 | 4 (≈ 5.45 µM)
isolate (source animal id): 115 | 8 (≈ 10.9 µM)
isolate (source animal id): 116 | 4 (≈ 5.45 µM)
isolate (source animal id): 117 | > 16
isolate (source animal id): 118 | 8 (≈ 10.9 µM)
isolate (source animal id): 119 | 8 (≈ 10.9 µM)
isolate (source animal id): 120 | 4 (≈ 5.45 µM)
isolate (source animal id): 121 | 4 (≈ 5.45 µM)
isolate (source animal id): 122 | 4 (≈ 5.45 µM)
isolate (source animal id): 123 | 4 (≈ 5.45 µM)
isolate (source animal id): 124 | 2 (≈ 2.72 µM)
isolate (source animal id): 125 | ≤ 1
isolate (source animal id): 126 | 4 (≈ 5.45 µM)
isolate (source animal id): 127 | 8 (≈ 10.9 µM)
isolate (source animal id): 128 | 4 (≈ 5.45 µM)
isolate (source animal id): 129 | 4 (≈ 5.45 µM)
isolate (source animal id): 130 | 4 (≈ 5.45 µM)
isolate (source animal id): 131 | 2 (≈ 2.72 µM)
isolate (source animal id): 132 | 4 (≈ 5.45 µM)
isolate (source animal id): 133 | 4 (≈ 5.45 µM)
isolate (source animal id): 134 | 4 (≈ 5.45 µM)
isolate (source animal id): 135 | 4 (≈ 5.45 µM)
isolate (source animal id): 136 | 4 (≈ 5.45 µM)
isolate (source animal id): 137 | 4 (≈ 5.45 µM)
isolate (source animal id): 138 | 4 (≈ 5.45 µM)
isolate (source animal id): 139 | 2 (≈ 2.72 µM)
isolate (source animal id): 140 | 4 (≈ 5.45 µM)
isolate (source animal id): 141 | 4 (≈ 5.45 µM)
isolate (source animal id): 142 | 4 (≈ 5.45 µM)
isolate (source animal id): 143 | 8 (≈ 10.9 µM)
isolate (source animal id): 144 | 4 (≈ 5.45 µM)
isolate (source animal id): 145 | 4 (≈ 5.45 µM)
isolate (source animal id): 146 | 8 (≈ 10.9 µM)
isolate (source animal id): 147 | 2 (≈ 2.72 µM)
isolate (source animal id): 148 | 4 (≈ 5.45 µM)
isolate (source animal id): 149 | 4 (≈ 5.45 µM)
isolate (source animal id): 150 | 4 (≈ 5.45 µM)
isolate (source animal id): 151 | 4 (≈ 5.45 µM)
isolate (source animal id): 152 | 4 (≈ 5.45 µM)
isolate (source animal id): 153 | 4 (≈ 5.45 µM)
isolate (source animal id): 154 | 4 (≈ 5.45 µM)
isolate (source animal id): 155 | 4 (≈ 5.45 µM)
isolate (source animal id): 156 | 4 (≈ 5.45 µM)
isolate (source animal id): 157 | 4 (≈ 5.45 µM)
isolate (source animal id): 158 | 4 (≈ 5.45 µM)
isolate (source animal id): 159 | 4 (≈ 5.45 µM)
isolate (source animal id): 160 | 4 (≈ 5.45 µM)
isolate (source animal id): 161 | 2 (≈ 2.72 µM)
isolate (source animal id): 162 | 4 (≈ 5.45 µM)
isolate (source animal id): 163 | 4 (≈ 5.45 µM)
isolate (source animal id): 164 | 4 (≈ 5.45 µM)
isolate (source animal id): 165 | 4 (≈ 5.45 µM)
isolate (source animal id): 166 | 4 (≈ 5.45 µM)
isolate (source animal id): 167 | 8 (≈ 10.9 µM)
isolate (source animal id): 168 | 4 (≈ 5.45 µM)
isolate (source animal id): 169 | 4 (≈ 5.45 µM)
isolate (source animal id): 170 | 4 (≈ 5.45 µM)
isolate (source animal id): 171 | 4 (≈ 5.45 µM)
isolate (source animal id): 172 | 4 (≈ 5.45 µM)
isolate (source animal id): 173 | 4 (≈ 5.45 µM)
isolate (source animal id): 174 | 4 (≈ 5.45 µM)
isolate (source animal id): 175 | 8 (≈ 10.9 µM)
isolate (source animal id): 176 | 8 (≈ 10.9 µM)
isolate (source animal id): 177 | 4 (≈ 5.45 µM)
isolate (source animal id): 178 | 4 (≈ 5.45 µM)
isolate (source animal id): 179 | 4 (≈ 5.45 µM)
isolate (source animal id): 180 | 4 (≈ 5.45 µM)
isolate (source animal id): 181 | 16 (≈ 21.8 µM)
isolate (source animal id): 182 | 8 (≈ 10.9 µM)
isolate (source animal id): 183 | 4 (≈ 5.45 µM)
isolate (source animal id): 184 | 8 (≈ 10.9 µM)
isolate (source animal id): 185 | 4 (≈ 5.45 µM)
isolate (source animal id): 186 | 4 (≈ 5.45 µM)
isolate (source animal id): 187 | 2 (≈ 2.72 µM)
isolate (source animal id): 188 | 4 (≈ 5.45 µM)
